Data from the supplement of paper PMC13380429.
± gives the standard deviation of the averaged measurements.

What was measured:
Settings in all cases: 72 h
Caco-2 [1] = assay: relative viability EC50 (midpoint between 100% and the lowest measured viability); higher = less toxic
Vero E6 [2] = assay: as above
U2OS [3] = assay: as above
HepG2 [4] = assay: as above
Calu-3 [5] = assay: as above
Caco-2 [6] = assay: drug sensitivity score (DSS) for viability; higher = more toxic; extreme values may be limits of the assay
Vero E6 [7] = assay: as above
U2OS [8] = assay: as above
HepG2 [9] = assay: as above
Calu-3 [10] = assay: as above
Caco-2 [11] = assay: cell viability relative to DMSO; higher = less toxic
Vero E6 [12] = assay: as above
U2OS [13] = assay: as above
HepG2 [14] = assay: as above
Calu-3 [15] = assay: as above

Row | SMILES | relative viability EC50 (Caco-2 [1]) [µM] | relative viability EC50 (Vero E6 [2]) [µM] | relative viability EC50 (U2OS [3]) [µM] | relative viability EC50 (HepG2 [4]) [µM] | relative viability EC50 (Calu-3 [5]) [µM] | drug sensitivity score (Caco-2 [6]) | drug sensitivity score (Vero E6 [7]) | drug sensitivity score (U2OS [8]) | drug sensitivity score (HepG2 [9]) | drug sensitivity score (Calu-3 [10]) | cell viability (Caco-2 [11]; 1 nM) [%] | cell viability (Caco-2 [11]; 10 nM) [%] | cell viability (Caco-2 [11]; 100 nM) [%] | cell viability (Caco-2 [11]; 1000 nM) [%] | cell viability (Caco-2 [11]; 10000 nM) [%] | cell viability (Vero E6 [12]; 1 nM) [%] | cell viability (Vero E6 [12]; 10 nM) [%] | cell viability (Vero E6 [12]; 100 nM) [%] | cell viability (Vero E6 [12]; 1000 nM) [%] | cell viability (Vero E6 [12]; 10000 nM) [%] | cell viability (U2OS [13]; 1 nM) [%] | cell viability (U2OS [13]; 10 nM) [%] | cell viability (U2OS [13]; 100 nM) [%] | cell viability (U2OS [13]; 1000 nM) [%] | cell viability (U2OS [13]; 10000 nM) [%] | cell viability (HepG2 [14]; 1 nM) [%] | cell viability (HepG2 [14]; 10 nM) [%] | cell viability (HepG2 [14]; 100 nM) [%] | cell viability (HepG2 [14]; 1000 nM) [%] | cell viability (HepG2 [14]; 10000 nM) [%] | cell viability (Calu-3 [15]; 1 nM) [%] | cell viability (Calu-3 [15]; 10 nM) [%] | cell viability (Calu-3 [15]; 100 nM) [%] | cell viability (Calu-3 [15]; 1000 nM) [%] | cell viability (Calu-3 [15]; 10000 nM) [%]
1 | COc1cc2c(cc1OC)-c1cc3ccc(OC)c(OC)c3c[n+]1CC2 [palmatine-chloride] | > 10 | > 10 | > 10 | > 10 | > 10 | 0 | 0 | 0 | 0.6 | 0 | 103 | 99.1 | 92.8 | 102 | 90.9 | 100 | 99.3 | 99.6 | 102 | 101 | 101 | 101 | 98.5 | 102 | 92.6 | 110 | 101 | 107 | 105 | 77.1 | 94.1 | 105 | 100 | 90.1 | 90
2 | COc1ccc(Cc2nccc3cc(OC)c(OC)cc23)cc1OC [papaverine] | > 10 | > 10 | > 10 | 3.17 | > 10 | 1.7 | 0 | 0 | 3.7 | 1.5 | 95 | 91.9 | 95.8 | 86.1 | 77.8 | 103 | 105 | 105 | 108 | 90.1 | 101 | 92.5 | 99 | 96.5 | 89.7 | 111 | 109 | 92.9 | 100 | 32.7 | 91.3 | 98.8 | 98.8 | 87.6 | 81.2
3 | NCCCC[C@@H]1NC(=O)[C@@H](Cc2c[nH]c3ccccc23)NC(=O)[C@H](c2ccccc2)NC(=O)[C@@H]2C[C@@H](OC(=O)NCCN)CN2C(=O)[C@H](Cc2ccccc2)NC(=O)[C@H](Cc2ccc(OCc3ccccc3)cc2)NC1=O [pasireotide] | > 10 | > 10 | > 10 | > 10 | > 10 | 0 | 0 | 0 | 0 | 0 | 108 | 107 | 88.4 | 110 | 146 | 98.9 | 89 | 96 | 83.6 | 96.8 | 96.7 | 104 | 95.8 | 102 | 108 | 91.9 | 105 | 114 | 102 | 93.3 | 102 | 101 | 87.8 | 106 | 108
4 | CN1CCC2=C(C1)C(c1ccccc1)c1ccccc12 (stereo not given) [phenindamine] | > 10 | > 10 | > 10 | > 10 | > 10 | 0 | 0 | 0 | 0 | 0 | 97.4 | 95.1 | 99.1 | 102 | 89 | 98.9 | 96.3 | 97.4 | 99.7 | 97.2 | 94 | 100 | 93.8 | 98 | 92.6 | 97 | 88.6 | 98.2 | 94.3 | 88.9 | 96.7 | 107 | 98.2 | 106 | 99.1
5 | COc1ccc(C(=O)Nc2c(Cl)cncc2Cl)cc1OC1CCCC1 [piclamilast] | > 10 | > 10 | > 10 | > 10 | > 10 | 0 | 0.8 | 0 | 0 | 0 | 96.6 | 97.3 | 102 | 107 | 98 | 98.3 | 95 | 92.4 | 91.4 | 82 | 98.2 | 95.7 | 103 | 98.3 | 94.8 | 90.4 | 86 | 92.7 | 102 | 101 | 97.5 | 89.4 | 102 | 99.9 | 87.5
6 | CN1CCC(=C2c3ccccc3Sc3ccccc32)CC1 [pimethixene] | > 10 | > 10 | > 10 | > 10 | > 10 | 0 | 0 | 0 | 1.2 | 0 | 100 | 89.7 | 96.9 | 101 | 102 | 103 | 101 | 106 | 105 | 98.4 | 103 | 97.8 | 102 | 99 | 95.5 | 108 | 98.9 | 121 | 84.7 | 92.1 | 103 | 105 | 100 | 100 | 101
7 | CC[N+]1(C)CCCC(OC(=O)C(O)(c2ccccc2)c2ccccc2)C1 (stereo not given) [pipenzolate] | > 10 | > 10 | > 10 | > 10 | > 10 | 0 | 0 | 0 | 0 | 0 | 102 | 100 | 103 | 95.2 | 95.7 | 105 | 101 | 105 | 103 | 96.7 | 100 | 95 | 95.4 | 93.3 | 97.4 | 89.3 | 102 | 97.7 | 99.8 | 94.3 | 96.3 | 95.5 | 93.3 | 94.6 | 91.8
8 | Clc1ccc(CCCOCCCN2CCCCC2)cc1 [pitolisant] | > 10 | > 10 | > 10 | > 10 | > 10 | 0 | 0 | 0 | 0.3 | 0 | 99.4 | 93.6 | 96.4 | 89.7 | 89.8 | 95 | 94.9 | 95.6 | 93.2 | 89.4 | 104 | 99.7 | 100 | 97.7 | 96.8 | 93.8 | 91.4 | 96 | 94.6 | 81.8 | 90.7 | 106 | 92.3 | 90.6 | 94.8
9 | C[C@]12C=CC(=O)C=C1CC[C@@H]1[C@@H]2[C@@H](O)C[C@@]2(C)[C@H]1CC[C@]2(O)C(=O)COC(=O)CCC(=O)O [prednisolone-hemisuccinate] | > 10 | > 10 | > 10 | > 10 | > 10 | 1.1 | 0 | 0 | 0 | 0 | 94.7 | 103 | 93.3 | 91.3 | 79.8 | 99.3 | 99.9 | 95.8 | 90 | 98.6 | 97.5 | 103 | 96 | 100 | 93.6 | 112 | 92.5 | 91.7 | 98.5 | 108 | 98.6 | 102 | 97.2 | 102 | 88.9
10 | Oc1cc(O)c2c(c1)O[C@H](c1ccc(O)c(O)c1)[C@H](O)[C@H]2c1c(O)cc(O)c2c1O[C@H](c1ccc(O)c(O)c1)[C@H](O)C2 [procyanidin-B-2] | > 10 | > 10 | > 10 | > 10 | > 10 | 0 | 0 | 0 | 0 | 0 | 106 | 102 | 102 | 98.7 | 105 | 97 | 98.2 | 91.8 | 101 | 93.4 | 103 | 99.9 | 106 | 99.5 | 104 | 98.5 | 100 | 96.8 | 99.3 | 94.7 | 112 | 95.6 | 100 | 93.1 | 109
11 | CC(C)NCC(O)COc1cccc2ccccc12 (stereo not given) [propranolol] | > 10 | > 10 | > 10 | > 10 | > 10 | 0 | 0 | 0.0333 ± 0.058 | 0 | 0.467 ± 0.81 | 101 ± 2.7 | 96 ± 3.8 | 101 ± 3 | 95 ± 9.6 | 100 ± 4.5 | 94.3 ± 3.7 | 98.95 ± 0.49 | 95.3 ± 4 | 95.1 ± 0.71 | 99.3 ± 3.2 | 96.1 ± 3.6 | 95.2 ± 2.7 | 97.2 ± 7.5 | 95.6 ± 2.3 | 96.5 ± 7.6 | 92.9 ± 6.3 | 101 ± 2.8 | 95.6 ± 7 | 102 ± 6 | 102 ± 1.6 | 95.3 ± 3.9 | 96.7 ± 2.8 | 99.4 ± 6 | 89.6 ± 5 | 92.9 ± 1.8
12 | c1ccc(COCCCc2c[nH]cn2)cc1 [proxyfan] | > 10 | > 10 | > 10 | > 10 | > 10 | 0 | 0 | 0 | 0 | 0 | 96.4 | 92.9 | 93.5 | 91.6 | 95.6 | 96.9 | 95.8 | 95.9 | 99 | 93.3 | 99.6 | 97.8 | 102 | 97.5 | 101 | 97.9 | 108 | 97.7 | 103 | 107 | 101 | 101 | 98.4 | 103 | 105
13 | NC[C@H]1O[C@H](O[C@H]2[C@H](O[C@@H]3O[C@H](CO)[C@@H](O)[C@H]3O)[C@@H](O)[C@H](N)C[C@@H]2N)[C@H](N)[C@@H](O)[C@@H]1O [ribostamycin-sulfate] | > 10 | > 10 | > 10 | > 10 | > 10 | 0.9 ± 1.3 | 0 | 0 | 0.05 ± 0.071 | 0 | 94.5 ± 5 | 97.1 ± 2.4 | 87.5 ± 12 | 93 ± 2 | 88.5 ± 9.1 | 103 ± 8.4 | 94 ± 5.7 | 100 ± 4.7 | 97.2 ± 2.3 | 102 ± 2.2 | 96.8 ± 1.1 | 98.8 ± 2.2 | 96.3 ± 2.3 | 101 ± 4.4 | 98.5 ± 1.5 | 99.2 ± 0.85 | 106.8 ± 0.21 | 97 ± 5.2 | 102 ± 4.5 | 93.6 ± 8.2 | 93.8 ± 8.4 | 97.7 ± 13 | 90.5 ± 5 | 104 ± 9.5 | 89.6 ± 0.99
